Patent US20240382564A1, “Methods and Compositions for Treating Muscular Dystrophy and Memory Impairment” (Allysta Pharmaceuticals, Inc., priority 2023, published 2024)
Where no end group is shown, it is not given here. [ ]: non-standard residue; d: D form. Nva = CCC[C@H](N)C(=O)O

What was measured:
D2.mdx mice [1] = assay: Western blotting of electron transport chain complex subunits in muscle; assay type: in vivo, mouse
Protocol: D2.mdx mice were treated with ALY688 at two different dosages; high dose (HD; 15 mg/kg body weight/day) or low dose (LD; 3 mg/kg body weight/day) dissolved in saline. A separate group of mice were treated with saline alone (VEH, vehicle). Treatment was provided via subscapular subcutaneous injections from 7 days of age to 28-30 days. […] At 28-30 days of age, mice were anaesthetized with isoflurane vaporized in medical air (21% oxygen) at a 2 L/min flow rate. Due to tissue limitations in limb muscle, certain measures were performed separately in tibialis anterior and quadriceps across several phases of breeding. Following the treatment protocol, in situ quadriceps force assessments were then performed in one limb followed by removal of the quadriceps from the other limb for mitochondrial assessments, diaphragm for in vitro force assessments and finally other tissues for further processing as described below. Muscle and visceral organs weights were normalized to tibia length. Tissue collected from the first phase were utilized in force, histological, mitochondrial measures (respiration, mH2O2 and calcium retention capacity) and western analyses (diaphragm and quadriceps only). A second phase was then collected and utilized for cytokine profiling, qPCR analyses and additional westerns (TA only). Serum was collected from both phase 1 and 2 and utilized for serum CK analysis. All animals were utilized in in vivo functional assays (grip strength, cage hang time and voluntary wheel running).
Frozen sections of quadriceps and diaphragm from each muscle (approximately 10-30 mg in size) were homogenized using a plastic microcentrifuge tube with tapered Teflon pestle in ice-cold lysis buffer containing (in mM) (20 Tris/HCl, 150 NaCl, 1 EDTA, 1 EGTA, 1% Triton X-100, 2.5 Na4O7P2, 1 Na3VO4, pH 7.0) supplemented with protease (Sigma) and phosphatase inhibitors (Roche). A 12% gel was used to separate electron transport chain proteins and all other proteins were separated on a 10% gel. Following, all gels were transferred onto 0.2μm low fluorescence PVDF membrane (Bio-Rad, Mississauga, Canada) and blocked with Li-COR Intercept Blocking Buffer (LI-COR, Lincoln NE, USA) for 1 hour. Membranes were then incubated with specific primary antibodies (listed below) overnight at 4° C. A commercially available monoclonal rodent OXPHOS Cocktail (ab110413; Abcam, Cambridge, UK, 1:250 dilution) including V-ATP5A (55 kDa), III-UQCRC2 (48 kDa), IV-MTCO1 (40 kDa), II-SDHB (30 kDa), and I-NDUFB8 (20 kDa) were used to detect electron transport chain proteins. […] Prior to detection, membranes were washed in TBS-T three times for 5 minutes and then imaged using infrared imaging (LI-COR CLx; LI-COR, Lincoln, NE, USA) and quantified by densitometry (ImageJ, http://imagej.nih.gov/ij/). […]

D2.mdx mice [2] = assay: In-vitro diaphragm force; assay type: in vivo, mouse
Protocol: D2.mdx mice were treated with ALY688 at two different dosages; high dose (HD; 15 mg/kg body weight/day) or low dose (LD; 3 mg/kg body weight/day) dissolved in saline. A separate group of mice were treated with saline alone (VEH, vehicle). Treatment was provided via subscapular subcutaneous injections from 7 days of age to 28-30 days. […] At 28-30 days of age, mice were anaesthetized with isoflurane vaporized in medical air (21% oxygen) at a 2 L/min flow rate. Due to tissue limitations in limb muscle, certain measures were performed separately in tibialis anterior and quadriceps across several phases of breeding. […]
A silk suture was attached to the central tendons and the ribs and secured in a bath with oxygenated Ringers solution containing (in mM) 121 NaCl, 5 KCl, 1.8 CaCl2, 0.5 MgCl2, 0.4 NaHPO4, 24 NaHCO3, 5.5 glucose and 0.1 EDTA; pH 7.3 (95% O2/5% CO2) maintained at 25° C. with ribs secured to the force transducer with an s-hook and central tendon to the lever arm. […] After the force-frequency protocol was assessed, a 5 minute rest period was provided before a fatiguing protocol was performed (70 Hz for 350 ms every 2 seconds for 5 minutes). Recovery from fatigue was assessed at 5-, 10- and 15-minutes post fatigue at the frequency that elicited maximum force in the force-frequency protocol. […]

Substance: [dN]IP[Nva]LY[dS]FA[dS]-NH2 [ALY688]
- complex IV content (D2.mdx mice [1]; diaphragm, LD): −27.0 % vs WT
- total sum of electron transport chain complexes (D2.mdx mice [1]; diaphragm, disease state groups): −13.8 to −19.3 % vs WT
- specific subunits of complex III and V (D2.mdx mice [1]; quadriceps and diaphragm, disease state groups (VEH, LD, HD)): −14.7 to −31.5 % vs WT
- total sum of electron transport chain complexes (D2.mdx mice [1]; quadriceps, HD): −29.1 % vs WT
- muscle force production, change (D2.mdx mice [2]; diaphragm strips, both doses): −2.3% to −43.0
- recovery from fatigue, change (D2.mdx mice [2]; diaphragm, high dose, printed range also covers quadriceps low dose): −5.3% to −50.9
